Assay results from article PMC6430037 (Heliyon, 2019).
“Also recorded” adds a separate entry of the source. Counter-ions that a name gives are not always drawn.

How the values were obtained:
mice [1] = experiment: Acetic acid induced writhing test; assay type: in vivo; settings: for number of writhes vs VEH: acetic acid 0.75%
[2] = test system: BDZ-bs of the GABAA receptor; experiment: [3H]-FNZ radioligand binding assay; settings: [3H]-FNZ displacement, compound at 300 μM, rat cerebral cortex membranes
5-HT1A receptor = molecular target: T1, 5-HT1A receptor (Rattus norvegicus, UniProt P19327); experiment: [3H]-8-OH-DPAT radioligand binding assay; settings: for inhibition at 300 µM: read-out: 5-HT1A Binding Inhibition (%) [300 μM]
T1 sequence (P19327 1-422): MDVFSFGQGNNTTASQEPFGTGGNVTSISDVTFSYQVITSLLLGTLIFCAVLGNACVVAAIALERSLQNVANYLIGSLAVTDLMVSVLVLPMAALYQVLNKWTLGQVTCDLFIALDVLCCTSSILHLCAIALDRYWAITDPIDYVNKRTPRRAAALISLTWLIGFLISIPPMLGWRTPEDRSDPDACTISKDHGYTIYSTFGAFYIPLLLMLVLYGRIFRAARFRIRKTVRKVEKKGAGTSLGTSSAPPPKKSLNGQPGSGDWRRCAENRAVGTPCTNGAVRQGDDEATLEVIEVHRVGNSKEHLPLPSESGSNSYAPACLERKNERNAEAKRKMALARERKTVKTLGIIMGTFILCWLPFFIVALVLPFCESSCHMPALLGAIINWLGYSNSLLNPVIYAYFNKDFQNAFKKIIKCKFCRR

[3] = PAMPA-BBB permeability assay; assay type: in vitro ADME; settings: for Papp at 16 h, 50 µM: PAMPA, pH 7.4; for BBB penetration estimation Prediction: PAMPA-BBB binning by -logPe
Cell viability assay = assay type: cell-based, human; settings: human, SH-SY5Y cells
mice [4] = experiment: Hot plate test; assay type: in vivo; settings: plate 52.5 °C; for reaction (latency) time against thermal stimulus vs VEH: 30 mg/kg i.p.
μ-opioid receptor = μ-opioid receptor (Rattus norvegicus, UniProt P33535); experiment: [3H]-DAMGO radioligand binding assay; settings: for inhibition at 300 µM: read-out: μ-opioid Binding inhibition (%) [300 μM]; for Ki: μ-opioid Ki, [3H]-DAMGO, rat forebrain membranes, Ki ± SEM, 2 determinations
Sequence of μ-opioid receptor (P33535 whole entry): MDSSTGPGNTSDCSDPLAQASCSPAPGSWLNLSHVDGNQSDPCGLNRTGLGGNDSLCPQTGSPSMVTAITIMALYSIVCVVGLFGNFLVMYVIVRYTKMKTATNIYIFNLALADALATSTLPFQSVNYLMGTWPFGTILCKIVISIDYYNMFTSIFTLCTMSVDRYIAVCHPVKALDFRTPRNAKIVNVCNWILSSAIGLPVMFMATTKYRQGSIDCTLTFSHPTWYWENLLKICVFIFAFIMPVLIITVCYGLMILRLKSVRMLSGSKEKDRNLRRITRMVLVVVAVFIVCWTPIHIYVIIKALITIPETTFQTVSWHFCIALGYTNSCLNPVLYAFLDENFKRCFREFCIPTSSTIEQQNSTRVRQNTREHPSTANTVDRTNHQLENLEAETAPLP

mice [5] = experiment: Rotarod; assay type: in vivo; settings: 30 mg/kg i.p., cut-off 120 s
mice [6] = experiment: Spontaneous locomotor activity; assay type: in vivo; settings: 10 and 30 mg/kg i.p., 5 min counts
mice [7] = experiment: Tail suspension test; assay type: in vivo; settings: 30 min before
mice [8] = experiment: Elevated plus-maze test; assay type: in vivo
mice [9] = settings: cited from earlier work
mice [10] = settings: cited from earlier work; remark: listed apart in the source
rats = settings: cited from earlier work
[11] = 10 mg/kg i.p., 30 min before, 5 min session

SMILES | BDZ-bs Binding inhibition (%) [300 μM] [2] | inhibition at 300 µM (5-HT1A receptor) [%] | inhibition at 300 µM (μ-opioid receptor) [%] | Ki (μ-opioid receptor) [µM] | Ki (5-HT1A receptor) [µM] | other results
Cc1cc(C(=O)/C=C/c2ccccc2)c(O)c([N+](=O)[O-])c1 [Compound 12, (2E)-1-(5-methyl-3-nitro-2-hydroxyphenyl)-3-phenyl-2-propen-1-one] | + (inhibition 20–40% (+)) | < 20 | > 90 | 10.8 ± 3.6 | – | inhibition of constrictions compared to VEH (mice [1]; 3 mg/kg i.p.): 59.7%; inhibition of constrictions compared to VEH (mice [1]; 10 mg/kg i.p.): 62.6%; number of writhes vs VEH (mice [1]; 10 mg/kg i.p.): significantly reduced; inhibition of constrictions compared to VEH (mice [1]; 30 mg/kg i.p.): 96.1%; Papp at 16 h, 50 µM [3]: 33.9 ×10⁻⁶ cm/s; BBB penetration estimation Prediction [3]: CNS+ (CNS+, -logPe < 5.6, high permeability); viability at 48 h, 20 µM (Cell viability assay): 74.8%; reaction (latency) time against thermal stimulus vs VEH (mice [4]): significant increases; also recorded: significantly increased; balance on the Rotarod (mice [5]): did not produce neurotoxicity or motor impairment; spontaneous locomotor activity vs VEH (mice [6]): None of the mice treated with chalcone 12 showed any failure in their locomotion
O=C(/C=C/c1ccccc1)c1cc(Cl)ccc1O [Compound 6, (2E)-1-(5-chloro-2-hydroxyphenyl)-3-phenyl-2-propen-1-one] | ++ (inhibition 40–60% (++)) | 40 to 60 | 60 to 90 | 19.4 ± 3.5 | – | number of writhes vs VEH (mice [1]; 10 mg/kg i.p.): significantly reduced; reaction (latency) time against thermal stimulus vs VEH (mice [4]): Only chalcone 12 at 30 mg/kg caused significant increases
COc1ccc(O)c(C(=O)/C=C/c2ccccc2)c1 [Compound 4, (2E)-1-(2-hydroxy-5-methoxyphenyl)-3-phenyl-2-propen-1-one] | +++ (inhibition 60–90% (+++)) | 60 to 90 | 60 to 90 | 54.6 ± 2.9 | 303 ± 1.2 | –
CN(C)c1ccc(/C=C/C(=O)c2ccccc2)cc1 [Compound 20, (2E)-3-[4-(dimethylamino)phenyl]-1-phenyl-2-propen-1-one] | - (inhibition <20% (-)) | 60 to 90 | 60 to 90 | 23.8 ± 3.1 | 59.6 ± 1.5 | –
O=C(/C=C/c1ccc(Cl)cc1)c1ccccc1 [Compound 19, (2E)-3-(4-chlorophenyl)-1-phenyl-2-propen-1-one] | + (inhibition 20–40% (+)) | < 20 | 20 to 40 | – | – | –
COc1cc(C(=O)/C=C/c2ccccc2)ccc1O [Compound 13, (2E)-1-(4-hydroxy-3-methoxyphenyl)-3-phenyl-2-propen-1-one] | ++ (inhibition 40–60% (++)) | 40 to 60 | 40 to 60 | – | 287.8 ± 1.9 | –
CN(C)CCCN1c2ccccc2CCc2ccccc21 [IMP, imipramine hydrochloride, reference compound] | – | – | – | – | – | immobility time vs VEH (mice [7]; 30 mg/kg i.p.): significantly reduced
Cc1ccc(O)c(C(=O)/C=C/c2ccccc2)c1 [Compound 9, (2E)-1-(2-hydroxy-5-methylphenyl)-3-phenyl-2-propen-1-one] | +++ (inhibition 60–90% (+++)) | 40 to 60 | 60 to 90 | 46.3 ± 1.6 | – | percentage of open arm entries vs VEH (mice [8]; [11]): significantly increased; percentage of time spent in open arms vs VEH (mice [8]; [11]): significantly increased; number of total arm entries vs VEH (mice [8]; 30 mg/kg i.p.): significantly increased; Papp at 16 h, 50 µM [3]: 25.1 ×10⁻⁶ cm/s; BBB penetration estimation Prediction [3]: CNS+ (CNS+, -logPe < 5.6, high permeability); viability at 48 h, 20 µM (Cell viability assay): 88.5%; spontaneous locomotor activity vs VEH (mice [6]): did not show significant differences
O=C(/C=C/c1ccccc1)c1cc(Br)ccc1O [Compound 8, (2E)-1-(5-bromo-2-hydroxyphenyl)-3-phenyl-2-propen-1-one] | ++ (inhibition 40–60% (++)) | 40 to 60 | 20 to 40 | – | – | –
O=C(/C=C/c1cccc(Br)c1)c1ccc(O)cc1O [3-bromo-2′,4′-dihydroxychalcone] | – | – | – | – | – | head-twitches in the 5-HT induced head-twitch test (mice [9]): significantly increased head-twitches; lethality in the yohimbine-induced mortality test (mice [10]): enhanced the mouse lethality
O=C(/C=C/c1cccc(Cl)c1)c1ccccc1 [Compound 18, (2E)-3-(3-chlorophenyl)-1-phenyl-2-propen-1-one] | ++ (inhibition 40–60% (++)) | 20 to 40 | 20 to 40 | – | – | –
O=C(/C=C/c1ccccc1)c1ccccc1O [Compound 2, (2E)-1-(2-hydroxyphenyl)-3-phenyl-2-propen-1-one] | +++ (inhibition 60–90% (+++)) | 60 to 90 | 20 to 40 | – | 71.4 ± 1.4 | –
O=C(/C=C/c1cccc([N+](=O)[O-])c1)c1ccccc1 [Compound 16, (2E)-3-(3-nitrophenyl)-1-phenyl-2-propen-1-one] | ++++ (inhibition >90% (++++)) | 40 to 60 | < 20 | – | – | number of total arm entries vs VEH (mice [8]; [11]): significantly increased
COc1cccc(O)c1C(=O)/C=C/c1ccccc1 [Compound 5, (2E)-1-(2-hydroxy-6-methoxyphenyl)-3-phenyl-2-propen-1-one] | - (inhibition <20% (-)) | > 90 | 60 to 90 | 26.7 ± 1.6 | 13.3 ± 0.3 | immobility time vs VEH (mice [7]; 10 mg/kg i.p.): not active
Cc1cc(O)c(C(=O)/C=C/c2ccccc2)cc1C [Compound 11, (2E)-1-(4,5-dimethyl-2-hydroxyphenyl)-3-phenyl-2-propen-1-one] | + (inhibition 20–40% (+)) | 60 to 90 | 60 to 90 | 29.1 ± 8.5 | 164 ± 1.47 | –
O=C(/C=C/c1ccc(O)c(O)c1)c1ccc(O)cc1O [butein] | – | – | – | – | – | effect in the plus-maze test (rats): anxiolytic-like effect
O=C(/C=C/c1c(Cl)cccc1Cl)c1ccc(O)cc1O [2,6-dichloro-2′,4′-dihydroxychalcone] | – | – | – | – | – | head-twitches in the 5-HT induced head-twitch test (mice [9]): significantly increased head-twitches; lethality in the yohimbine-induced mortality test (mice [10]): enhanced the mouse lethality
O=C(/C=C/c1ccccc1)c1cc(Br)cc(Br)c1O [Compound 10, (2E)-1-(3,5-dibromo-2-hydroxyphenyl)-3-phenyl-2-propen-1-one] | - (inhibition <20% (-)) | 60 to 90 | 60 to 90 | 32.5 ± 9.3 | 1220 ± 469 | –
Nc1ccc(C(=O)/C=C/c2ccccc2)cc1 [Compound 14, (2E)-1-(4-aminophenyl)-3-phenyl-2-propen-1-one] | +++ (inhibition 60–90% (+++)) | 40 to 60 | 60 to 90 | 59.4 ± 1.5 | – | –
Nc1ccc(C(=O)/C=C/c2cccc([N+](=O)[O-])c2)cc1 [Compound 21, (2E)-1-(4-aminophenyl)-3-(3-nitrophenyl)-2-propen-1-one] | – | 60 to 90 | 40 to 60 | – | 473 ± 7.3 | –
O=C(/C=C/c1ccccc1)c1cc(F)ccc1O [Compound 7, (2E)-1-(5-fluoro-2-hydroxyphenyl)-3-phenyl-2-propen-1-one] | ++ (inhibition 40–60% (++)) | 60 to 90 | 60 to 90 | 29.5 ± 6.6 | 129 ± 2.7 | –
CN1CC[C@]23c4c5ccc(O)c4O[C@H]2[C@@H](O)C=C[C@H]3[C@H]1C5 [morphine, Morphine hydrochloride, reference compound] | – | – | – | – | – | abdominal cramps (mice [1]; 6 mg/kg i.p.): no abdominal cramps; latency time (mice [4]; 6 mg/kg i.p., 45 s cut-off): 42.6 s
Cc1ccc(C(=O)/C=C/c2ccccc2)cc1 [Compound 15, (2E)-1-(4-methylphenyl)-3-phenyl-2-propen-1-one] | +++ (inhibition 60–90% (+++)) | 40 to 60 | 20 to 40 | – | – | –
O=C(/C=C/c1ccc([N+](=O)[O-])cc1)c1ccccc1 [Compound 17, (2E)-3-(4-nitrophenyl)-1-phenyl-2-propen-1-one] | - (inhibition <20% (-)) | < 20 | 20 to 40 | – | – | –
COc1ccc(C(=O)/C=C/c2ccccc2)c(O)c1 [Compound 3, (2E)-1-(2-hydroxy-4-methoxyphenyl)-3-phenyl-2-propen-1-one] | +++ (inhibition 60–90% (+++)) | 20 to 40 | 20 to 40 | – | – | –
